Test results published in the supplement of paper PMC11208160.
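Further: IS621 bridge recombinase in Escherichia coli cells against a fixed T5 target plasmid.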

Assay: recombinant UMI read abundance after kanamycin selection (control-corrected) (log10(CPM+1)); higher = more efficient recombination; extreme values may be limits of the assay; sequences stand for … in AGTGCAGAGAAAATCGGCCAGTTTTCTCTGCCTGCAGTCCGCATGCCGTGGGACCCCTTGGGTTCTAACCTGTTGCCTAGATTTATGCAGCGGACTGCCTTTCTCCCAAAGTGATAAACCGG…AGGTTGGTTTCACT; site = the 11-nt donor
Outline: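 Each donor and donor-binding-loop pair was tracked by a 12-nt UMI on a plasmid carrying a promoterless kanamycin gene. With a second plasmid supplying a fixed target and T7-inducible IS621 bridge recombinase, the pool was plated in Escherichia coli on IPTG (0.07 mM) plus kanamycin or unselected. Sequencing of recombinant UMIs across the donor–target junction gave counts expressed as log10(CPM+1) after replicate averaging and control-derived scaling.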
In the case of “AGCTAAGCATGGACCGGTTTTCCCGGTAATCCGTATTTGGG (site AGCTTAGCTCC)”, the “recombinant UMI read abundance (log10)” value is reported as 0.117. With “AGCTACGCATGGACCGGTTTTCCCGGTAATCCGTATTTGAA (site AGCTACGCTTT)” the “recombinant UMI read abundance (log10)” value was 1.7. With “AGCTAGCCATGGACCGGTTTTCCCGGTAATCCGTATTTGGA (site AGCTAGCCTTC)” the “recombinant UMI read abundance (log10)” value was 0.00495. With “AGCTAGGCATGGACCGGTTTTCCCGGTAATCCGTATTTGGT (site AGCTAGGCTAC)” the “recombinant UMI read abundance (log10)” value was 0.659. For “AGCTAGGCATGGACCGGTTTTCCCGGTAATCCGTATTTGGT (site CGCTAGGCTAC)”, the “recombinant UMI read abundance (log10)” value was 0.00222. With “AGCTAGGCATGGACCGGTTTTCCCGGTAATCCGTATTTGGT (site GGCTAGGCTAC)” the “recombinant UMI read abundance (log10)” value was 0.0154. With “AGCTAGGCATGGACCGGTTTTCCCGGTAATCCGTATTTGGT (site TGCTAGGCTAC)” the “recombinant UMI read abundance (log10)” value was 0.0219. For “AGCTCACCATGGACCGGTTTTCCCGGTAATCCGTATTTGGG (site AGCTCAACTCC)”, the “recombinant UMI read abundance (log10)” value was 0.0175. With “AGCTCACCATGGACCGGTTTTCCCGGTAATCCGTATTTGGG (site AGCTCACCTCC)” the “recombinant UMI read abundance (log10)” value was 0.0182. With “AGCTCACCATGGACCGGTTTTCCCGGTAATCCGTATTTGGG (site AGCTCAGCTCC)” the “recombinant UMI read abundance (log10)” value was 0.0165. With “AGCTCACCATGGACCGGTTTTCCCGGTAATCCGTATTTGGG (site AGCTCATCTCC)” the “recombinant UMI read abundance (log10)” value was 0. With “AGCTCAGCATGGACCGGTTTTCCCGGTAATCCGTATTTGAG (site AGCTCAGCTCA)” the “recombinant UMI read abundance (log10)” value was 0.0132. For “AGCTCAGCATGGACCGGTTTTCCCGGTAATCCGTATTTGAG (site AGCTCAGCTCC)”, the “recombinant UMI read abundance (log10)” value was 0.026. For “AGCTCAGCATGGACCGGTTTTCCCGGTAATCCGTATTTGAG (site AGCTCAGCTCG)”, the “recombinant UMI read abundance (log10)” value was 0. With “AGCTCAGCATGGACCGGTTTTCCCGGTAATCCGTATTTGAG (site AGCTCAGCTCT)” the “recombinant UMI read abundance (log10)” value was 1.33. In the case of “AGCTCAGCATGGACCGGTTTTCCCGGTAATCCGTATTTGGA (site AGCTCAGCTAC)”, the “recombinant UMI read abundance (log10)” value is reported as 0.00904. In the case of “AGCTCAGCATGGACCGGTTTTCCCGGTAATCCGTATTTGGA (site AGCTCAGCTCC)”, the “recombinant UMI read abundance (log10)” value is reported as 0.264. In the case of “AGCTCAGCATGGACCGGTTTTCCCGGTAATCCGTATTTGGA (site AGCTCAGCTGC)”, the “recombinant UMI read abundance (log10)” value is reported as 0. In the case of “AGCTCAGCATGGACCGGTTTTCCCGGTAATCCGTATTTGGA (site AGCTCAGCTTC)”, the “recombinant UMI read abundance (log10)” value is reported as 1.03. With “AGCTCAGCATGGACCGGTTTTCCCGGTAATCCGTATTTGTG (site AGCTCAGCTCA)” the “recombinant UMI read abundance (log10)” value was 0.506. With “AGCTCAGCATGGACCGGTTTTCCCGGTAATCCGTATTTGTG (site AGCTCAGCTCC)” the “recombinant UMI read abundance (log10)” value was 0.00732. In the case of “AGCTCAGCATGGACCGGTTTTCCCGGTAATCCGTATTTGTG (site AGCTCAGCTCG)”, the “recombinant UMI read abundance (log10)” value is reported as 0. For “AGCTCAGCATGGACCGGTTTTCCCGGTAATCCGTATTTGTG (site AGCTCAGCTCT)”, the “recombinant UMI read abundance (log10)” value was 0.362. In the case of “AGCTCGACATGGACCGGTTTTCCCGGTAATCCGTATTTGGC (site AGCTCGACTGC)”, the “recombinant UMI read abundance (log10)” value is reported as 1.31. For “AGCTCTGCATGGACCGGTTTTCCCGGTAATCCGTATTTGGG (site AGCTCAGCTCC)”, the “recombinant UMI read abundance (log10)” value was 0.0199. With “AGCTCTGCATGGACCGGTTTTCCCGGTAATCCGTATTTGGG (site AGCTCCGCTCC)” the “recombinant UMI read abundance (log10)” value was 0.0101. For “AGCTCTGCATGGACCGGTTTTCCCGGTAATCCGTATTTGGG (site AGCTCGGCTCC)”, the “recombinant UMI read abundance (log10)” value was 0. In the case of “AGCTCTGCATGGACCGGTTTTCCCGGTAATCCGTATTTGGG (site AGCTCTGCTCC)”, the “recombinant UMI read abundance (log10)” value is reported as 0.25. For “AGCTTAGCATGGACCGGTTTTCCCGGTAATCCGTATTTGTT (site AGCATAGCTAA)”, the “recombinant UMI read abundance (log10)” value was 0.00999. In the case of “AGCTTAGCATGGACCGGTTTTCCCGGTAATCCGTATTTGTT (site AGCCTAGCTAA)”, the “recombinant UMI read abundance (log10)” value is reported as 0.261. With “AGCTTAGCATGGACCGGTTTTCCCGGTAATCCGTATTTGTT (site AGCGTAGCTAA)” the “recombinant UMI read abundance (log10)” value was 0.0147. For “AGCTTAGCATGGACCGGTTTTCCCGGTAATCCGTATTTGTT (site AGCTTAGCTAA)”, the “recombinant UMI read abundance (log10)” value was 0.0106. In the case of “AGCTTCCCATGGACCGGTTTTCCCGGTAATCCGTATTTGGG (site AGCTTCCCTCC)”, the “recombinant UMI read abundance (log10)” value is reported as 0.0229. For “AGCTTGCCATGGACCGGTTTTCCCGGTAATCCGTATTTGAT (site AGCTTGCCTAT)”, the “recombinant UMI read abundance (log10)” value was 0.0115. In the case of “AGGAAGACATGGACCGGTTTTCCCGGTAATCCGTATTTGAC (site AGGAAGACTGT)”, the “recombinant UMI read abundance (log10)” value is reported as 2.64. With “AGGAAGACATGGACCGGTTTTCCCGGTAATCCGTATTTGAC (site AGGAAGACTTG)” the “recombinant UMI read abundance (log10)” value was 0.571. With “AGGAAGACATGGACCGGTTTTCCCGGTAATCCGTATTTGCC (site AGGAAGACTAG)” the “recombinant UMI read abundance (log10)” value was 0.42. For “AGGAAGACATGGACCGGTTTTCCCGGTAATCCGTATTTGCC (site AGGAAGACTCG)”, the “recombinant UMI read abundance (log10)” value was 0.723. With “AGGAAGACATGGACCGGTTTTCCCGGTAATCCGTATTTGCC (site AGGAAGACTGG)” the “recombinant UMI read abundance (log10)” value was 1.84. For “AGGAAGACATGGACCGGTTTTCCCGGTAATCCGTATTTGCC (site AGGAAGACTTG)”, the “recombinant UMI read abundance (log10)” value was 1.8. In the case of “AGGAAGACATGGACCGGTTTTCCCGGTAATCCGTATTTGGT (site AGGAAGACTAC)”, the “recombinant UMI read abundance (log10)” value is reported as 2.1. For “AGGAAGACATGGACCGGTTTTCCCGGTAATCCGTATTTGGT (site AGGAAGACTTG)”, the “recombinant UMI read abundance (log10)” value was 0. With “AGGAAGCCATGGACCGGTTTTCCCGGTAATCCGTATTTGCC (site AGGAAGACTTG)” the “recombinant UMI read abundance (log10)” value was 0. In the case of “AGGAAGCCATGGACCGGTTTTCCCGGTAATCCGTATTTGCC (site AGGAAGCCTGG)”, the “recombinant UMI read abundance (log10)” value is reported as 0. For “AGGAATACATGGACCGGTTTTCCCGGTAATCCGTATTTGCA (site AGGAAAACTTG)”, the “recombinant UMI read abundance (log10)” value was 0.656. In the case of “AGGAATACATGGACCGGTTTTCCCGGTAATCCGTATTTGCA (site AGGAACACTTG)”, the “recombinant UMI read abundance (log10)” value is reported as 1.48. In the case of “AGGAATACATGGACCGGTTTTCCCGGTAATCCGTATTTGCA (site AGGAAGACTTG)”, the “recombinant UMI read abundance (log10)” value is reported as 0.151. With “AGGAATACATGGACCGGTTTTCCCGGTAATCCGTATTTGCA (site AGGAATACTTG)” the “recombinant UMI read abundance (log10)” value was 2.11. With “AGGAATACATGGACCGGTTTTCCCGGTAATCCGTATTTGGA (site AGGAAGACTTG)” the “recombinant UMI read abundance (log10)” value was 0.341. For “AGGAATACATGGACCGGTTTTCCCGGTAATCCGTATTTGGA (site AGGAATACTTC)”, the “recombinant UMI read abundance (log10)” value was 1.69. For “AGGAATACATGGACCGGTTTTCCCGGTAATCCGTATTTGGG (site AGGAATACTCC)”, the “recombinant UMI read abundance (log10)” value was 0.394. In the case of “AGGACAACATGGACCGGTTTTCCCGGTAATCCGTATTTGAC (site AGGACAACTGT)”, the “recombinant UMI read abundance (log10)” value is reported as 2.26. With “AGGACAACATGGACCGGTTTTCCCGGTAATCCGTATTTGAC (site AGGACCACTGT)” the “recombinant UMI read abundance (log10)” value was 0. With “AGGACAACATGGACCGGTTTTCCCGGTAATCCGTATTTGAC (site AGGACGACTGT)” the “recombinant UMI read abundance (log10)” value was 0. For “AGGACAACATGGACCGGTTTTCCCGGTAATCCGTATTTGAC (site AGGACTACTGT)”, the “recombinant UMI read abundance (log10)” value was 0. With “AGGACGACATGGACCGGTTTTCCCGGTAATCCGTATTTGAC (site AGGACAACTGT)” the “recombinant UMI read abundance (log10)” value was 2.09. With “AGGACGACATGGACCGGTTTTCCCGGTAATCCGTATTTGAC (site AGGACCACTGT)” the “recombinant UMI read abundance (log10)” value was 0.378. In the case of “AGGACGACATGGACCGGTTTTCCCGGTAATCCGTATTTGAC (site AGGACGACTGT)”, the “recombinant UMI read abundance (log10)” value is reported as 3.14. In the case of “AGGACGACATGGACCGGTTTTCCCGGTAATCCGTATTTGAC (site AGGACTACTGT)”, the “recombinant UMI read abundance (log10)” value is reported as 0. In the case of “AGGACGACATGGACCGGTTTTCCCGGTAATCCGTATTTGCT (site AGGAAGACTTG)”, the “recombinant UMI read abundance (log10)” value is reported as 0. In the case of “AGGACGACATGGACCGGTTTTCCCGGTAATCCGTATTTGCT (site AGGACGACTAG)”, the “recombinant UMI read abundance (log10)” value is reported as 2.52. For “AGGACTACATGGACCGGTTTTCCCGGTAATCCGTATTTGAA (site AGGACTACTAT)”, the “recombinant UMI read abundance (log10)” value was 1.41. With “AGGACTACATGGACCGGTTTTCCCGGTAATCCGTATTTGAA (site AGGACTACTCT)” the “recombinant UMI read abundance (log10)” value was 0.127. In the case of “AGGACTACATGGACCGGTTTTCCCGGTAATCCGTATTTGAA (site AGGACTACTGT)”, the “recombinant UMI read abundance (log10)” value is reported as 0.477. With “AGGACTACATGGACCGGTTTTCCCGGTAATCCGTATTTGAA (site AGGACTACTTT)” the “recombinant UMI read abundance (log10)” value was 1.13. For “AGGACTACATGGACCGGTTTTCCCGGTAATCCGTATTTGCC (site AGGACTACTGA)”, the “recombinant UMI read abundance (log10)” value was 0. For “AGGACTACATGGACCGGTTTTCCCGGTAATCCGTATTTGCC (site AGGACTACTGC)”, the “recombinant UMI read abundance (log10)” value was 0. With “AGGACTACATGGACCGGTTTTCCCGGTAATCCGTATTTGCC (site AGGACTACTGG)” the “recombinant UMI read abundance (log10)” value was 2.23. In the case of “AGGACTACATGGACCGGTTTTCCCGGTAATCCGTATTTGCC (site AGGACTACTGT)”, the “recombinant UMI read abundance (log10)” value is reported as 0. With “AGGACTGCATGGACCGGTTTTCCCGGTAATCCGTATTTGAG (site AGGACTGCTCT)” the “recombinant UMI read abundance (log10)” value was 1.79. In the case of “AGGAGGACATGGACCGGTTTTCCCGGTAATCCGTATTTGCA (site AGGAAGACTTG)”, the “recombinant UMI read abundance (log10)” value is reported as 2.35. For “AGGAGGACATGGACCGGTTTTCCCGGTAATCCGTATTTGCA (site AGGACGACTTG)”, the “recombinant UMI read abundance (log10)” value was 0.4. With “AGGAGGACATGGACCGGTTTTCCCGGTAATCCGTATTTGCA (site AGGAGGACTTG)” the “recombinant UMI read abundance (log10)” value was 2.56. For “AGGAGGACATGGACCGGTTTTCCCGGTAATCCGTATTTGCA (site AGGATGACTTG)”, the “recombinant UMI read abundance (log10)” value was 0. With “AGGAGTACATGGACCGGTTTTCCCGGTAATCCGTATTTGAC (site AGGAATACTGT)” the “recombinant UMI read abundance (log10)” value was 1.29.
